These results are taken from US11173151B2, “Substituted triazole derivatives and uses thereof” (BAYER AKTIENGESELLSCHAFT, priority 2017, dated 2021).

The target of one assay is T1, human V1a receptor (Homo sapiens, UniProt P37288).
T1 construct: expressed in transfected cells; host or cells: CHO K1 (ATCC), also stably transfected with a modified aequorin
The experiment in a line: Cellular in vitro assay for determining vasopressin receptor activity, V1a receptor cell line (CHO, aequorin luminescence). The format is cell-based. Particulars: for IC50: CHO cell line transfected with human V1a receptor, [Arg]-vasopressin at EC50 concentration, read-out: IC50 hV1a; for ratio IC50 hV2/hV1a: selectivity ratio IC50 hV2 / IC50 hV1a. In short, it runs like this: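 Cells were plated the day before in medium containing 5 μg/ml coelenterazine and kept at 37° C. Compounds at various concentrations were then added for 10 minutes. Next, [Arg]-vasopressin at EC50 was applied and light output recorded at once, yielding IC50.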

The target in another assay is T2, human V2 receptor (Homo sapiens, UniProt P30518).
T2 construct: expressed in transfected cells; host or cells: CHO K1 (ATCC) expressing firefly luciferase under a CRE-responsive promoter
The experiment in a line: Cellular in vitro assay for determining vasopressin receptor activity, V2 receptor cell line (CHO, CRE-luciferase). The settings on record: CHO cell line transfected with human V2 receptor; [Arg8]-vasopressin at EC50 concentration, 3 hours; read-out: IC50 hV2. The format is cell-based.

T1 sequence (P37288 whole entry): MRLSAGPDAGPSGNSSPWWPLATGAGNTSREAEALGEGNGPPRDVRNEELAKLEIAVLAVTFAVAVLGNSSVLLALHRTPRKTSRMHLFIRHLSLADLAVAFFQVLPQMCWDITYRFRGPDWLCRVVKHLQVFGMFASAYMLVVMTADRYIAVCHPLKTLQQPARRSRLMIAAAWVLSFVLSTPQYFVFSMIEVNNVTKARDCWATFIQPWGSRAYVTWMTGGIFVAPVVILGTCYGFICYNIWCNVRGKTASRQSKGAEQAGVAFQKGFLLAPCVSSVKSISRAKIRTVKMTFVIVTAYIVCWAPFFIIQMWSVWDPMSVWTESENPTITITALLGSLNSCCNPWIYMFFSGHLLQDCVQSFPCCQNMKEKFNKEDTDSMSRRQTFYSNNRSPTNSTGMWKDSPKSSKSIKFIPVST
T2 sequence (P30518 whole entry): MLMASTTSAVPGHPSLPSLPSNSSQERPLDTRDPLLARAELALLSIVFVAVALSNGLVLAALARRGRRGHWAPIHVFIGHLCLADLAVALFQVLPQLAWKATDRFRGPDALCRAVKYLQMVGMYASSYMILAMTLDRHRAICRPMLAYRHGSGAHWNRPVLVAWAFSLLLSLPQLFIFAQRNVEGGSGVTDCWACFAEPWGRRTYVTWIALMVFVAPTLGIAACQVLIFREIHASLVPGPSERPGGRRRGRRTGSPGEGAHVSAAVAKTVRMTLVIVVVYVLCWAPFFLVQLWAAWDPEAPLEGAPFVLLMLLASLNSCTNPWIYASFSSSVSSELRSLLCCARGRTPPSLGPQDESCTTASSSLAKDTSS

Consider `O=C(O)CCNc1ccncc1-n1cnc(Cn2nc(-c3ccc(Cl)cc3)n(C[C@H](O)C(F)(F)F)c2=O)n1` [Example 20, N-{3-[3-({3-(4-Chlorophenyl)-5-oxo-4-[(2S)-3,3,3-trifluoro-2-hydroxypropyl]-4,5-dihydro-1H-1,2,4-triazol-1-yl}methyl)-1H-1,2,4-triazol-1-yl]pyridin-4-yl}-beta-alanine], for which, on human V1a receptor, the IC50 (in general, the concentration at which inhibition is half-maximal) worked out at 4.35 µM and the “ratio IC50 hV2/hV1a” value came to 1.4. Moreover, the IC50 at human V2 receptor came to 5.92 µM.

For `NC(=O)CCNc1ccncc1-n1cnc(Cn2nc(-c3ccc(Cl)cc3)n(C[C@H](O)C(F)(F)F)c2=O)n1` [Example 21, N^3-{3-[3-({3-(4-Chlorophenyl)-5-oxo-4-[(2S)-3,3,3-trifluoro-2-hydroxypropyl]-4,5-dihydro-1H-1,2,4-triazol-1-yl}methyl)-1H-1,2,4-triazol-1-yl]pyridin-4-yl}-beta-alaninamide], on human V1a receptor, the IC50 is 0.84 µM and the “ratio IC50 hV2/hV1a” value came to 1.8. In addition, the IC50 on human V2 receptor came to 1.48 µM.

As to `NC(=O)[C@H]1CCCN1c1ccncc1-n1cnc(Cn2nc(-c3ccc(Cl)cc3)n(C[C@H](O)C(F)(F)F)c2=O)n1` [Example 22, 1-{3-[3-({3-(4-Chlorophenyl)-5-oxo-4-[(2S)-3,3,3-trifluoro-2-hydroxypropyl]-4,5-dihydro-1H-1,2,4-triazol-1-yl}methyl)-1H-1,2,4-triazol-1-yl]pyridin-4-yl}-D-prolinamide], at human V1a receptor, the IC50 was 0.25 µM and the “ratio IC50 hV2/hV1a” value is reported as 2.8. Further, the IC50 on human V2 receptor is 0.69 µM.

As for `NC(=O)[C@@H]1CCCN1c1ccncc1-n1cnc(Cn2nc(-c3ccc(Cl)cc3)n(C[C@H](O)C(F)(F)F)c2=O)n1` [Example 23, 1-{3-[3-({3-(4-Chlorophenyl)-5-oxo-4-[(2S)-3,3,3-trifluoro-2-hydroxypropyl]-4,5-dihydro-1H-1,2,4-triazol-1-yl}methyl)-1H-1,2,4-triazol-1-yl]pyridin-4-yl}-L-prolinamide], at human V1a receptor, the IC50 is 0.71 µM and the “ratio IC50 hV2/hV1a” value is reported as 6.0. The IC50 on human V2 receptor was 4.25 µM.

As for `NC(=O)[C@H]1CC(F)(F)CN1c1ccncc1-n1cnc(Cn2nc(-c3ccc(Cl)cc3)n(C[C@H](O)C(F)(F)F)c2=O)n1` [Example 24, 1-{3-[3-({3-(4-Chlorophenyl)-5-oxo-4-[(2S)-3,3,3-trifluoro-2-hydroxypropyl]-4,5-dihydro-1H-1,2,4-triazol-1-yl}methyl)-1H-1,2,4-triazol-1-yl]pyridin-4-yl}-4,4-difluoro-D-prolinamide], on human V1a receptor, the IC50 stood at 0.33 µM and the “ratio IC50 hV2/hV1a” value stood at 14.2. For the same molecule, the IC50 at human V2 receptor turned out to be 4.67 µM.

As for `NC(=O)[C@@H]1CC(F)(F)CN1c1ccncc1-n1cnc(Cn2nc(-c3ccc(Cl)cc3)n(C[C@H](O)C(F)(F)F)c2=O)n1` [Example 25, 1-{3-[3-({3-(4-Chlorophenyl)-5-oxo-4-[(2S)-3,3,3-trifluoro-2-hydroxypropyl]-4,5-dihydro-1H-1,2,4-triazol-1-yl}methyl)-1H-1,2,4-triazol-1-yl]pyridin-4-yl}-4,4-difluoro-L-prolinamide], the IC50 on human V1a receptor was 1.97 µM; on human V2 receptor it was 4.9 µM. Further, the “ratio IC50 hV2/hV1a” value at human V1a receptor stood at 2.5.

For `O=C(Nc1ccncc1-n1cnc(Cn2nc(-c3ccc(Cl)cc3)n(C[C@H](O)C(F)(F)F)c2=O)n1)OCC(F)(F)F` [Example 26, 2,2,2-Trifluoroethyl {3-[3-({3-(4-chlorophenyl)-5-oxo-4-[(2S)-3,3,3-trifluoro-2-hydroxypropyl]-4,5-dihydro-1H-1,2,4-triazol-1-yl}methyl)-1H-1,2,4-triazol-1-yl]pyridin-4-yl}carbamate], on human V1a receptor, the IC50 stood at 0.058 µM and the “ratio IC50 hV2/hV1a” value came out at 5.6. Also, at human V2 receptor, the IC50 was 0.323 µM.

As for `O=C(CC(F)(F)F)Nc1ccncc1-n1cnc(Cn2nc(-c3ccc(Cl)cc3)n(C[C@H](O)C(F)(F)F)c2=O)n1` [Example 27, N-{3-[3-({3-(4-Chlorophenyl)-5-oxo-4-[(2S)-3,3,3-trifluoro-2-hydroxypropyl]-4,5-dihydro-1H-1,2,4-triazol-1-yl}methyl)-1H-1,2,4-triazol-1-yl]pyridin-4-yl}-3,3,3-trifluoropropanamide], on human V1a receptor, the IC50 amounted to 0.00405 µM and the “ratio IC50 hV2/hV1a” value was found to be 69.8. The IC50 on human V2 receptor is 0.283 µM.

For `CC(=O)Nc1ccncc1-n1cnc(Cn2nc(-c3ccc(Cl)cc3)n(C[C@H](O)C(F)(F)F)c2=O)n1` [Example 28, N-{3-[3-({3-(4-Chlorophenyl)-5-oxo-4-[(2S)-3,3,3-trifluoro-2-hydroxypropyl]-4,5-dihydro-1H-1,2,4-triazol-1-yl}methyl)-1H-1,2,4-triazol-1-yl]pyridin-4-yl}acetamide], at human V1a receptor, the IC50 was found to be 0.011 µM and the “ratio IC50 hV2/hV1a” value was found to be 35.9. At human V2 receptor, the IC50 came to 0.395 µM.

For the molecule `O=C(CC1CC1)Nc1ccncc1-n1cnc(Cn2nc(-c3ccc(Cl)cc3)n(C[C@H](O)C(F)(F)F)c2=O)n1` [Example 30, N-{3-[3-({3-(4-Chlorophenyl)-5-oxo-4-[(2S)-3,3,3-trifluoro-2-hydroxypropyl]-4,5-dihydro-1H-1,2,4-triazol-1-yl}methyl)-1H-1,2,4-triazol-1-yl]pyridin-4-yl}-2-cyclopropylacetamide], on human V1a receptor, the IC50 came to 0.0129 µM and the “ratio IC50 hV2/hV1a” value is 61.0. Moreover, the IC50 on human V2 receptor was determined as 0.783 µM.

Regarding `O=C(Nc1ccncc1-n1cnc(Cn2nc(-c3ccc(Cl)cc3)n(C[C@H](O)C(F)(F)F)c2=O)n1)C1CC(F)(F)C1` [Example 31, N-{3-[3-({3-(4-Chlorophenyl)-5-oxo-4-[(2S)-3,3,3-trifluoro-2-hydroxypropyl]-4,5-dihydro-1H-1,2,4-triazol-1-yl}methyl)-1H-1,2,4-triazol-1-yl]pyridin-4-yl}-3,3-difluorocyclobutanecarboxamide], at human V1a receptor, the IC50 came to 0.0183 µM and the “ratio IC50 hV2/hV1a” value was determined as 90.8. Besides, on human V2 receptor, the IC50 stood at 1.67 µM.

For `O=C(Nc1ccncc1-n1cnc(Cn2nc(-c3ccc(Cl)cc3)n(C[C@H](O)C(F)(F)F)c2=O)n1)C1(C(F)(F)F)CC1` [Example 32, N-{3-[3-({3-(4-Chlorophenyl)-5-oxo-4-[(2S)-3,3,3-trifluoro-2-hydroxypropyl]-4,5-dihydro-1H-1,2,4-triazol-1-yl}methyl)-1H-1,2,4-triazol-1-yl]pyridin-4-yl}-1-(trifluoromethyl)cyclopropanecarboxamide], on human V1a receptor, the concentration for half-maximal inhibition (IC50) stood at 0.005 µM and the “ratio IC50 hV2/hV1a” value amounted to 150.7. Further, the IC50 at human V2 receptor is 0.753 µM.

In the case of `O=C(Nc1ccncc1-n1cnc(Cn2nc(-c3ccc(Cl)cc3)n(C[C@H](O)C(F)(F)F)c2=O)n1)[C@@H]1C[C@@H]1F` [Example 34, (1S,2S)—N-{t3-[3-({3-(4-Chlorophenyl)-5-oxo-4-[(2S)-3,3,3-trifluoro-2-hydroxypropyl]-4,5-dihydro-1H-1,2,4-triazol-1-yl}methyl)-1H-1,2,4-triazol-1-yl]pyridin-4-yl}-2-fluorocyclopropanecarboxamide], the figures for the IC50 at human V1a receptor and at human V2 receptor were 0.0135 µM and 1.24 µM, respectively. Moreover, the “ratio IC50 hV2/hV1a” value on human V1a receptor was 92.1.

Turning to `O=C(Nc1cccnc1-n1cnc(Cn2nc(-c3ccc(Cl)cc3)n(C[C@H](O)C(F)(F)F)c2=O)n1)C(F)(F)F` [Example 36, N-{2-[3-({3-(4-Chlorophenyl)-5-oxo-4-[(2S)-3,3,3-trifluoro-2-hydroxypropyl]-4,5-dihydro-1H-1,2,4-triazol-1-yl}methyl)-1H-1,2,4-triazol-1-yl]pyridin-3-yl}-2,2,2-trifluoroacetamide], on human V1a receptor, the IC50 amounted to 0.0675 µM and the “ratio IC50 hV2/hV1a” value is 3.4. In addition, the IC50 at human V2 receptor worked out at 0.233 µM.

As to `O=C(CC(F)(F)F)Nc1cccnc1-n1cnc(Cn2nc(-c3ccc(Cl)cc3)n(C[C@H](O)C(F)(F)F)c2=O)n1` [Example 37, N-{2-[3-({3-(4-Chlorophenyl)-5-oxo-4-[(2S)-3,3,3-trifluoro-2-hydroxypropyl]-4,5-dihydro-1H-1,2,4-triazol-1-yl}methyl)-1H-1,2,4-triazol-1-yl]pyridin-3-yl}-3,3,3-trifluoropropanamide], the IC50 amounted to 0.0075 µM on human V1a receptor and 0.578 µM on human V2 receptor. Besides, at human V1a receptor, the “ratio IC50 hV2/hV1a” value worked out at 77.0.

Consider `CC(=O)Nc1cccnc1-n1cnc(Cn2nc(-c3ccc(Cl)cc3)n(C[C@H](O)C(F)(F)F)c2=O)n1` [Example 38, N-{2-[3-({3-(4-Chlorophenyl)-5-oxo-4-[(2S)-3,3,3-trifluoro-2-hydroxypropyl]-4,5-dihydro-1H-1,2,4-triazol-1-yl}methyl)-1H-1,2,4-triazol-1-yl]pyridin-3-yl}acetamide], for which, on human V1a receptor, the IC50 is 0.0042 µM and the “ratio IC50 hV2/hV1a” value was found to be 52.4. Besides, the IC50 at human V2 receptor worked out at 0.22 µM.

`O=C(CF)Nc1cccnc1-n1cnc(Cn2nc(-c3ccc(Cl)cc3)n(C[C@H](O)C(F)(F)F)c2=O)n1` [Example 39, N-{2-[3-({3-(4-Chlorophenyl)-5-oxo-4-[(2S)-3,3,3-trifluoro-2-hydroxypropyl]-4,5-dihydro-1H-1,2,4-triazol-1-yl}methyl)-1H-1,2,4-triazol-1-yl]pyridin-3-yl}-2-fluoroacetamide]: at human V1a receptor, the IC50 is 0.023 µM and the “ratio IC50 hV2/hV1a” value is 15.7. Moreover, the IC50 at human V2 receptor worked out at 0.36 µM.

Take `COCC(=O)Nc1cccnc1-n1cnc(Cn2nc(-c3ccc(Cl)cc3)n(C[C@H](O)C(F)(F)F)c2=O)n1` [Example 40, N-{2-[3-({3-(4-Chlorophenyl)-5-oxo-4-[(2S)-3,3,3-trifluoro-2-hydroxypropyl]-4,5-dihydro-1H-1,2,4-triazol-1-yl}methyl)-1H-1,2,4-triazol-1-yl]pyridin-3-yl}-2-methoxyacetamide]: at human V1a receptor, the IC50 amounted to 0.0255 µM and the “ratio IC50 hV2/hV1a” value worked out at 13.7. Moreover, at human V2 receptor, the IC50 is 0.35 µM.
